This note sets out measurements from ChEMBL document CHEMBL4052765, “Synthesis and antibacterial evaluation of novel 11-O-carbamoyl clarithromycin ketolides” (2017).

What all share (assay type): functional
Assay [1] deals with Staphylococcus aureus. The assay can be described thus: Antibacterial activity against […] Staphylococcus aureus ATCC 29213 after 24 h by NCCLS broth microdilution method. The settings on record: ATCC 29213, 24 h. A general note: In broth dilution the organism is exposed to a series of concentrations in liquid medium.
In assay [2] the test system is Streptococcus pneumoniae. In words: Antibacterial activity against erythromycin-resistant Streptococcus pneumoniae AB11 harboring harboring mef and erm gene after 24 h by NCCLS broth microdilution method. Conditions: AB11, 24 h.
In assay [3] the test system is Staphylococcus aureus. In words: Potency index, ratio of clarithromycin MIC to compound MIC against […] Staphylococcus aureus ATCC 29213.
In assay [4] the test system is Streptococcus pneumoniae. In words: Antibacterial activity against erythromycin-resistant Streptococcus pneumoniae B1 harboring erm gene after 24 h by NCCLS broth microdilution method. Conditions: B1, 24 h.
In assay [5] the test system is Streptococcus pneumoniae. In words: Antibacterial activity against erythromycin-resistant Streptococcus pneumoniae A22072 harboring mef gene after 24 h by NCCLS broth microdilution method. The settings on record: A22072, 24 h.
Assay [6] relates to Streptococcus pyogenes. The assay can be described thus: Antibacterial activity against erythromycin-susceptible Streptococcus pyogenes after 24 h by NCCLS broth microdilution method.
The subject of a further assay is Pseudomonas aeruginosa. In words: Antibacterial activity against penicillin-susceptible Pseudomonas aeruginosa ATCC 27853 after 24 h by NCCLS broth microdilution method. The settings on record: ATCC 27853, 24 h.
The test system of assay [7] is Streptococcus pyogenes. In words: Antibacterial activity against erythromycin-resistant Streptococcus pyogenes R1 after 24 h by NCCLS broth microdilution method. The settings on record: R1, 24 h.
For assay [8], the system named is Staphylococcus aureus. The assay can be described thus: Antibacterial activity against erythromycin-susceptible Staphylococcus aureus ATCC 25923 after 24 h by NCCLS broth microdilution method. The settings on record: ATCC 25923, 24 h.
A further assay concerns Bacillus subtilis. In words: Antibacterial activity against penicillin-susceptible Bacillus subtilis ATCC 9372 after 24 h by NCCLS broth microdilution method. Conditions: ATCC 9372, 24 h.
The subject of another assay is Escherichia coli. The assay can be described thus: Antibacterial activity against penicillin-susceptible Escherichia coli ATCC 25922 after 24 h by NCCLS broth microdilution method. Conditions: ATCC 25922, 24 h.

Structures are written as SMILES. ≈ marks a conversion by molar mass, not a printed value.

Usually MIC stands for the lowest concentration that inhibits growth of the organism. Regarding `CC[C@H]1OC(=O)[C@H](C)C(=O)[C@H](C)[C@@H](O[C@@H]2O[C@H](C)C[C@H](N(C)C)[C@H]2O)[C@](C)(OC)C[C@@H](C)C(=O)[C@H](C)[C@@H](OC(=O)NCCNC(=O)/C=C/c2ccco2)[C@]1(C)O`, the MIC came out at 16 µg/mL (≈ 20.2 µM) against Staphylococcus aureus [1]; 128 µg/mL (≈ 161 µM) against Streptococcus pneumoniae [2]; 128 µg/mL (≈ 161 µM) against Streptococcus pneumoniae [4]; 1 µg/mL (≈ 1.26 µM) in the assay on Streptococcus pneumoniae [5]; 4 µg/mL (≈ 5.04 µM) in the assay on Streptococcus pyogenes [6]; 128 µg/mL (≈ 161 µM) in the assay with Pseudomonas aeruginosa. Also, the MIC is over 128 µg/mL in the assay on Streptococcus pyogenes [7], 64 µg/mL (≈ 80.6 µM) in the assay on Staphylococcus aureus [8], 8 µg/mL (≈ 10.1 µM) with Bacillus subtilis and 128 µg/mL (≈ 161 µM) in the assay on Escherichia coli. For the same compound, in the assay on Staphylococcus aureus [3], the Ratio turned out to be 4.

Take `CC[C@H]1OC(=O)[C@H](C)C(=O)[C@H](C)[C@@H](O[C@@H]2O[C@H](C)C[C@H](N(C)C)[C@H]2O)[C@](C)(OC)C[C@@H](C)C(=O)[C@H](C)[C@@H](OC(=O)NCCNC(=O)/C=C/c2ccc(F)cc2)[C@]1(C)O`: the MIC is 128 µg/mL (≈ 156 µM) against Staphylococcus aureus [1]; 64 µg/mL (≈ 77.9 µM) with Streptococcus pneumoniae [2]; 128 µg/mL (≈ 156 µM) in the assay on Streptococcus pneumoniae [4]; 4 µg/mL (≈ 4.87 µM) in the assay on Streptococcus pneumoniae [5]; 2 µg/mL (≈ 2.43 µM) with Streptococcus pyogenes [6]; over 128 µg/mL in the assay on Pseudomonas aeruginosa. The MIC was over 128 µg/mL with Streptococcus pyogenes [7], 32 µg/mL (≈ 38.9 µM) against Staphylococcus aureus [8], 8 µg/mL (≈ 9.73 µM) with Bacillus subtilis and over 128 µg/mL against Escherichia coli.

On to `CC[C@H]1OC(=O)[C@H](C)C(=O)[C@H](C)[C@@H](O[C@@H]2O[C@H](C)C[C@H](N(C)C)[C@H]2O)[C@](C)(OC)C[C@@H](C)C(=O)[C@H](C)[C@@H](OC(=O)NCCNC(=O)/C=C/c2ccc(Br)cc2)[C@]1(C)O`, for which the MIC with Staphylococcus aureus [1] was 64 µg/mL (≈ 72.5 µM); in the assay on Streptococcus pneumoniae [2], 128 µg/mL (≈ 145 µM); against Streptococcus pneumoniae [4], 128 µg/mL (≈ 145 µM); against Streptococcus pneumoniae [5], 2 µg/mL (≈ 2.27 µM); against Streptococcus pyogenes [6] it was 2 µg/mL (≈ 2.27 µM); with Pseudomonas aeruginosa, over 128 µg/mL. In addition, the MIC in the assay with Streptococcus pyogenes [7] is over 128 µg/mL; against Staphylococcus aureus [8], 32 µg/mL (≈ 36.2 µM); with Bacillus subtilis, 4 µg/mL (≈ 4.53 µM); in the assay with Escherichia coli it was over 128 µg/mL.

Take `CC[C@H]1OC(=O)[C@H](C)C(=O)[C@H](C)[C@@H](O[C@@H]2O[C@H](C)C[C@H](N(C)C)[C@H]2O)[C@](C)(OC)C[C@@H](C)C(=O)[C@H](C)[C@@H](OC(=O)NCCNC(=O)/C=C/c2ccc(C)cc2)[C@]1(C)O`: the MIC in the assay with Staphylococcus aureus [1] was 64 µg/mL (≈ 78.2 µM); with Streptococcus pneumoniae [2], 64 µg/mL (≈ 78.2 µM); with Streptococcus pneumoniae [4], 128 µg/mL (≈ 156 µM); in the assay on Streptococcus pneumoniae [5], 4 µg/mL (≈ 4.89 µM); against Streptococcus pyogenes [6], 4 µg/mL (≈ 4.89 µM); in the assay on Pseudomonas aeruginosa it was over 128 µg/mL. Moreover, the MIC with Streptococcus pyogenes [7] is over 128 µg/mL; with Staphylococcus aureus [8], 64 µg/mL (≈ 78.2 µM); against Bacillus subtilis it was 8 µg/mL (≈ 9.78 µM); against Escherichia coli, over 128 µg/mL.

For the compound `CC[C@H]1OC(=O)[C@H](C)C(=O)[C@H](C)[C@@H](O[C@@H]2O[C@H](C)C[C@H](N(C)C)[C@H]2O)[C@](C)(OC)C[C@@H](C)C(=O)[C@H](C)[C@@H](OC(=O)NCCNC(=O)/C=C/c2ccc([N+](=O)[O-])cc2)[C@]1(C)O`, the MIC in the assay with Staphylococcus aureus [1] was 128 µg/mL (≈ 151 µM); against Streptococcus pneumoniae [2], 128 µg/mL (≈ 151 µM); with Streptococcus pneumoniae [4] it was 128 µg/mL (≈ 151 µM); against Streptococcus pneumoniae [5], 1 µg/mL (≈ 1.18 µM); in the assay on Streptococcus pyogenes [6], 1 µg/mL (≈ 1.18 µM); against Pseudomonas aeruginosa it was 128 µg/mL (≈ 151 µM). The MIC in the assay on Streptococcus pyogenes [7] was over 128 µg/mL; against Staphylococcus aureus [8], 32 µg/mL (≈ 37.7 µM); against Bacillus subtilis it was 4 µg/mL (≈ 4.71 µM); in the assay on Escherichia coli, over 128 µg/mL.

In the case of `CC[C@H]1OC(=O)[C@H](C)C(=O)[C@H](C)[C@@H](O[C@@H]2O[C@H](C)C[C@H](N(C)C)[C@H]2O)[C@](C)(OC)C[C@@H](C)C(=O)[C@H](C)[C@@H](OC(=O)NCCNC(=O)/C=C/c2ccccc2Cl)[C@]1(C)O`, the MIC is 32 µg/mL (≈ 38.2 µM) against Staphylococcus aureus [1]; 128 µg/mL (≈ 153 µM) with Streptococcus pneumoniae [2]; 128 µg/mL (≈ 153 µM) in the assay on Streptococcus pneumoniae [4]; 2 µg/mL (≈ 2.39 µM) in the assay with Streptococcus pneumoniae [5]; 2 µg/mL (≈ 2.39 µM) with Streptococcus pyogenes [6]; over 128 µg/mL in the assay on Pseudomonas aeruginosa. Also, the minimum inhibitory concentration (MIC) in the assay on Streptococcus pyogenes [7] is over 128 µg/mL; in the assay with Staphylococcus aureus [8], 32 µg/mL (≈ 38.2 µM); with Bacillus subtilis, 4 µg/mL (≈ 4.77 µM); against Escherichia coli, 128 µg/mL (≈ 153 µM).
